Assay results published in US12589094B2, “Concomitant administration of glucocorticoid receptor modulator relacorilant and paclitaxel, a dual substrate of CYP2C8 and CYP3A4” (Corcept Therapeutics Incorporated, priority 2020, dated 2026).
“And” between values parts separate entries of the source, which are not always exact repeats. Identical values can stand only once. “Also recorded” adds a separate entry of the source.

Assays:
[1] = biological target: T1, CYP2C8 (Homo sapiens, UniProt P10632); test: Clinical drug-drug interaction study in healthy volunteers: effect of relacorilant on plasma pioglitazone (CYP2C8 substrate)
T1 sequence (P10632 1-490): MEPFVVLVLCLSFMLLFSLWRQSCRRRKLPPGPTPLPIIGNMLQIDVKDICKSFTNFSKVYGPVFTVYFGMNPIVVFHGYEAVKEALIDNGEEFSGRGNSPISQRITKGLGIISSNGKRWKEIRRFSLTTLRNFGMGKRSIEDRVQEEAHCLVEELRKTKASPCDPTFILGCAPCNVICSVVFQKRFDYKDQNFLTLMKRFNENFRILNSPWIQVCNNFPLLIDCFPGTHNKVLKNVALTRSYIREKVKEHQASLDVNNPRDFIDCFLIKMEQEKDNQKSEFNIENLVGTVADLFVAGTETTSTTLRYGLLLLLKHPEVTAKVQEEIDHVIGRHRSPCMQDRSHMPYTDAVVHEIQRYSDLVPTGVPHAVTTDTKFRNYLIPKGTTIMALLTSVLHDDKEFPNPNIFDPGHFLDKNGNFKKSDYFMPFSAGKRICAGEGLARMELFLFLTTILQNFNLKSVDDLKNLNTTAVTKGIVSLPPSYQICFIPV
Method: An open-label, crossover study was conducted in healthy subjects to determine the effect of relacorilant on the plasma exposure of midazolam, a known substrate of CYP3A4, and pioglitazone, a known substrate of CYP2C8. A single dose of midazolam 2.5 mg was administered alone and intensive pharmacokinetic (PK) samples were collected before dosing (0 hour) and at 0.25, 0.5, 1, 1.5, 2, 4, 6, 8, 12, 16, and 24 hours post-dose. On the following day, a single dose of 15 mg of pioglitazone was administered alone and intensive PK samples were collected before dosing (0 hour) and at 0.5, 1, 1.5, 2, 2.5, 3, 4, 6, 8, 12, 18, 24, 36, 48, 60, and 72 hours post-dose. Relacorilant 350 mg was then administered once a day for 9 consecutive days. On the tenth day of once-daily relacorilant dosing, a single dose of midazolam 2.5 mg was administered in combination with relacorilant 350 mg and intensive PK samples were again collected at pre-dose though 24 hours post-dose. On the following day, a single dose of 15 mg of pioglitazone was administered in combination with relacorilant 350 mg and intensive pharmacokinetic (PK) samples were again collected at pre-dose through 72 hours post-dose. The plasma concentrations of midazolam and its metabolite, 1-OH midazolam, and pioglitazone and its metabolite, pioglitazone M4 were evaluated by validated bioanalytical assays on each of dosing occasions of midazolam or pioglitazone.

[2] = biological target: T2, CYP3A4 (Homo sapiens, UniProt P08684); details: for AUC0-tz, Ratio of Geometric LSMs (%) / AUCinf, Ratio of Geometric LSMs (%) / Cmax, Ratio of Geometric LSMs (%): 100 * Test/Reference, midazolam with 350 mg relacorilant (Day 14) vs midazolam alone (Day 1)
Method: (§1) An open-label, crossover study was conducted in healthy subjects to determine the effect of relacorilant on the plasma exposure of midazolam, a known substrate of CYP3A4, and pioglitazone, a known substrate of CYP2C8. A single dose of midazolam 2.5 mg was administered alone and intensive pharmacokinetic (PK) samples were collected before dosing (0 hour) and at 0.25, 0.5, 1, 1.5, 2, 4, 6, 8, 12, 16, and 24 hours post-dose. […] Relacorilant 350 mg was then administered once a day for 9 consecutive days. On the tenth day of once-daily relacorilant dosing, a single dose of midazolam 2.5 mg was administered in combination with relacorilant 350 mg and intensive PK samples were again collected at pre-dose though 24 hours post-dose.

[3] = biological target: T2, CYP3A4; test: clinical; details: in vivo, po, 2.5 mg
Method: as §1

[4] = biological target: T1, CYP2C8; test: In vitro CYP inhibition assay, Assay 1 (3-CYP mix); assay type: in vitro ADME; set-up: from tissue; host or cells: healthy human subjects, in vivo (endogenous enzyme); details: CYP2C8 expressed in E. coli, substrate amodiaquine, 10 min incubation, 37° C., pH 7.4
Method: Cytochrome P450 (CYP) isoforms CYP2B6, CYP2C8 and CYP3A5, heterologously expressed in E. coli, were obtained from Cypex and mixed to produce a 3-CYP mix. […] A selective and FDA accepted substrate for each isoform was present in the reaction at a concentration around its Km.
(§2) The CYP mix and a CYP substrate cocktail were added and the tubes warmed for 3 minutes whilst mixing on a BioShake IQ (37° C., 1500 rpm). NADPH (final concentration 1 mM) was added and the mixture was incubated for 10 minutes. Methanol containing an internal standard (1 μM tolbutamide) was then added to all samples, and these were mixed and placed at −20° C. for ≥1 hour to quench the reaction and allow protein to precipitate.
All samples were centrifuged (2500×g, 20 minutes, 4° C.). The supernatants were transferred to a fresh 96 well plate, compatible with an autosampler. The plate was sealed with a pre-slit silicone mat and the metabolites were analyzed by LC-MS/MS.
Control CYP inhibitors (IC50—appropriate concentration range, final assay concentration 1% DMSO) were added as a cocktail. […]
In Assay 1, the final concentration of the 3-CYP mix was 18 pmol/mL for CYP2B6 (where pmol is picomoles), 1 pmol/mL for CYP2C and 5 pmol/mL for CYP3A5. […] The metabolites measured were: CYP2B6, hydroxybupropion; CYP2C8, N-desethyl amodiaquine; CYP3A5, 1′-hydroxymidazolam. […]

[5] = biological target: T2, CYP3A4; test: In vitro CYP inhibition assay, Assay 2 (5-CYP mix); assay type: in vitro ADME; set-up: from tissue; host or cells: healthy human subjects, in vivo (endogenous enzyme); details: CYP3A4 expressed in E. coli, substrate midazolam, 10 min incubation, 37° C., pH 7.4
Method: In a separate assay, isoforms for CYP1A2, CYP2C9, CYP2C19, CYP2D6, and CYP3A4 heterologously expressed in E. coli and obtained from Cypex as a custom made mixture of 5 isoforms. A selective and FDA accepted substrate for each isoform was present in the reaction at a concentration around its Km.
as §2
All samples were centrifuged (2500×g, 20 minutes, 4° C.). […] The plate was sealed with a pre-slit silicone mat and the metabolites were analyzed by LC-MS/MS. […]
In Assay 2, the final concentration of the 5-CYP mix was 32.5 pmol/ml for each of the enzymes evaluated (i.e., CYP1A2, CYP2C9, CYP2C19, CYP2D6, and CYP3A4). […]
In Assay 2, the CYP substrate cocktail comprised the following components: CYP1A2, tacrine; CYP2C9, diclofenac; CYP2C19, (S)mephenytoin; CYP2D6, bufuralol; CYP3A4, midazolam. The metabolites measured were: CYP1A2, 1-hydroxytacrine; CYP2C9, 4′-hydroxydiclofenac; CYP2C19, 4′-hydroxymephenytoin; CYP2D6, hydroxybufuralol; CYP3A4, 1′-hydroxymidazolam. […]

[6] = Pharmacokinetics of nab-paclitaxel alone or with relacorilant in patients with advanced solid tumors (Study CORT125134-550); assay type: in vivo, human; details: cancer patients; same dose administered alone as comparison
From the text: The combination of relacorilant and nab-paclitaxel has been evaluated in patients with advanced solid tumors.

[7] = plasma, healthy subjects, single oral 2.5 mg midazolam hydrochloride alone, Day 1
[8] = plasma, healthy subjects, single oral 2.5 mg midazolam hydrochloride with 350 mg relacorilant, Day 14
[9] = 100 * Test/Reference, pioglitazone with 350 mg relacorilant (Day 15) vs pioglitazone alone (Day 2)

T2 sequence (P08684 whole entry): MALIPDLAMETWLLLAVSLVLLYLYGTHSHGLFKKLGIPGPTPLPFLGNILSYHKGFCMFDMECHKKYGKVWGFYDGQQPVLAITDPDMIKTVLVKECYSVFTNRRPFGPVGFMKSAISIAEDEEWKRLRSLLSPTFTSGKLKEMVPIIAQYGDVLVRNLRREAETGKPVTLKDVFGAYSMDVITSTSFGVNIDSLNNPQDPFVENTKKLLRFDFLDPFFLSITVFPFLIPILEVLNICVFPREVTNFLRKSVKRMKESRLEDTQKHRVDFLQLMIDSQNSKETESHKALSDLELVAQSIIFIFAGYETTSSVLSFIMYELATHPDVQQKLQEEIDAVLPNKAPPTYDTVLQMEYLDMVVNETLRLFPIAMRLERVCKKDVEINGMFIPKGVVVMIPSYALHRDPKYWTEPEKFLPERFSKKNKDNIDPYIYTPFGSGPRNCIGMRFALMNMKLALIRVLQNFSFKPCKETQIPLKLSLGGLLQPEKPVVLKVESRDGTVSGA

In the case of `CC(O)c1ccc(CCOc2ccc(CC3SC(=O)NC3=O)cc2)nc1` (stereo not drawn) [Pioglitazone M4], the “AUC0-tz, Geometric LSM, Reference (Day 2) Treatment B” value ([1]; human, in vivo, po, 15 mg) is reported as 10460 ng·h/mL, the “AUCinf, Geometric LSM, Reference (Day 2) Treatment B” value ([1]; human, in vivo, po, 15 mg) is reported as 12890 ng·h/mL and the “Cmax, Geometric LSM, Reference (Day 2) Treatment B” value ([1]; human, in vivo, po, 15 mg) is reported as 237.3 ng/mL.
In the case of `OCc1ncc2n1-c1ccc(Cl)cc1C(c1ccccc1F)=NC2` [1-OH midazolam], the “AUC0-tz, Ratio of Geometric LSMs (%)” value [2] is reported as 796.64%, the “AUCinf, Ratio of Geometric LSMs (%)” value [2] is reported as 814.51% and the “Cmax, Ratio of Geometric LSMs (%)” value [2] is reported as 164.86%. The “AUC0-tz, Geometric LSM, Reference (Day 1) Treatment A” value [2, 7] was 9.360 ng·h/mL, the “AUCinf, Geometric LSM, Reference (Day 1) Treatment A” value [2, 7] was 10.28 ng·h/mL and the “Cmax, Geometric LSM, Reference (Day 1) Treatment A” value [2, 7] was 4.038 ng/mL. For the same compound, the “AUC0-tz, Geometric LSM, Test (Day 14) Treatment D” value [2, 8] was 74.56 ng·h/mL, the “AUCinf, Geometric LSM, Test (Day 14) Treatment D” value [2, 8] was 83.72 ng·h/mL and the “Cmax, Geometric LSM, Test (Day 14) Treatment D” value [2, 8] was 6.657 ng/mL.
In the case of `Cc1ncc2n1-c1ccc(Cl)cc1C(c1ccccc1F)=NC2` [Midazolam, midazolam], the AUC(0-inf) [3] is reported as 33 ng·h/mL, the AUC(0-t) [3] is reported as 30.9 ng·h/mL and the Cmax [3] is reported as 11.8 ng/mL. For the same compound, the “AUC0-tz, Ratio of Geometric LSMs (%)” value [2] was 878.43%, the “AUCinf, Ratio of Geometric LSMs (%)” value [2] was 892.81% and the “Cmax, Ratio of Geometric LSMs (%)” value [2] was 310.98%. The “increase in plasma exposure (AUCinf) when administered with relacorilant, relative to midazolam alone” value ([2]; healthy subjects, once daily relacorilant 350 mg) was 8 fold and > 8 fold.
In the case of `Cn1cc(S(=O)(=O)N2CCC3=Cc4c(cnn4-c4ccc(F)cc4)C[C@]3(C(=O)c3cc(C(F)(F)F)ccn3)C2)cn1` [relacorilant, (R)-(1-(4-fluorophenyl)-6-((1-methyl-1H-pyrazol-4-yl)sulfonyl)-4,4a,5,6,7,8-hexahydro-1H-pyrazolo[3,4-g]isoquinolin-4a-yl)(4-(trifluoromethyl)pyridine-2-yl)methanone], the “inhibition of CYP2C8 in vivo” value ([1]; healthy subjects, once daily relacorilant 350 mg, probe pioglitazone) is reported as “does not inhibit”, the IC50 [4] is reported as 210 nM and the IC50 [5] is reported as 1320 nM.
In the case of `CCc1ccc(CCOc2ccc(CC3SC(=O)NC3=O)cc2)nc1` (stereo not drawn) [Pioglitazone, pioglitazone], the “AUC0-tz, Ratio of Geometric LSMs (%)” value [1, 9] is reported as 74.71%, the “AUCinf, Ratio of Geometric LSMs (%)” value [1, 9] is reported as 74.83% and the “Cmax, Ratio of Geometric LSMs (%)” value [1, 9] is reported as 77.82%. For the same compound, the “change in plasma exposure/concentration when administered with relacorilant” value ([1]; healthy volunteers, once daily relacorilant 350 mg, pioglitazone 15 mg) was “no increase; also recorded: did not increase”, the AUC(0-inf) ([1]; human, plasma, po, 15 mg) was 5410 ng·h/mL and the AUC(0-t) ([1]; human, plasma, po, 15 mg) was 5290 ng·h/mL. The Cmax ([1]; human, plasma, po, 15 mg) was 484 ng/mL.
In the case of `CC(=O)O[C@H]1C(=O)[C@@]2(C)[C@H]([C@H](OC(=O)c3ccccc3)[C@]3(O)C[C@H](OC(=O)[C@H](O)[C@@H](NC(=O)c4ccccc4)c4ccccc4)C(C)=C1C3(C)C)[C@]1(OC(C)=O)CO[C@@H]1C[C@@H]2O` [paclitaxel], the “increase in plasma levels/exposure (AUC) when co-administered with relacorilant, relative to alone” value [6] is reported as “about 80%”.
